According to ChEMBL document CHEMBL1201862, “PubChem BioAssay data set” (2004):
The source made the active and inactive calls.

Key:
[1] = target: T1, Delta-type opioid receptor (Homo sapiens, UniProt P41143); experiment: HTS Image-Based Screen for Antagonists of the DOR Receptor. [Related pubchem assays (depositor defined):AID1777, AID1785, AID1786, AID2133]; format: functional
[2] = target: Mu-type opioid receptor (Homo sapiens, UniProt P35372); experiment: HTS Image-Based Screen for Agonists of the MOR Receptor. [Related pubchem assays (depositor defined):AID1777, AID1785, AID1786, AID2133]; format: functional;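 note: imaging of beta-arrestin GFP recruitment into spots after receptor activation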
[3] = target: T1, Delta-type opioid receptor; experiment: HTS Image-Based Screen for Agonists of the DOR Receptor. [Related pubchem assays (depositor defined):AID1777, AID1786, AID2133]; format: functional
[4] = target: T2, Kappa-type opioid receptor (Homo sapiens, UniProt P41145); format: functional
[5] = target: Beta-galactosidase (Escherichia coli, UniProt Q8VNN2); format: functional
[6] = target: T2, Kappa-type opioid receptor; format: functional; remark: listed apart in the source
[7] = target: T2, Kappa-type opioid receptor; experiment: SAR analysis of small molecule agonists of the kappa opioid receptor via a luminescent beta-arrestin assay - Set 3. [Related pubchem assays (depositor defined):AID1777, AID1785, AID1786, AID1966, AID2133, AID2136, AID2284, AID2500]; format: functional
[8] = target: T3, Dual specificity protein phosphatase 3 (Homo sapiens, UniProt P51452); experiment: VHR1 phosphatase inhibitors, primary screen, biochemical, absorbance, uHTS (AID 1654)
[9] = target: T4, Tyrosine-protein phosphatase non-receptor type 7 (Homo sapiens, UniProt P35236); format: functional
T4 sequence (P35236 whole entry): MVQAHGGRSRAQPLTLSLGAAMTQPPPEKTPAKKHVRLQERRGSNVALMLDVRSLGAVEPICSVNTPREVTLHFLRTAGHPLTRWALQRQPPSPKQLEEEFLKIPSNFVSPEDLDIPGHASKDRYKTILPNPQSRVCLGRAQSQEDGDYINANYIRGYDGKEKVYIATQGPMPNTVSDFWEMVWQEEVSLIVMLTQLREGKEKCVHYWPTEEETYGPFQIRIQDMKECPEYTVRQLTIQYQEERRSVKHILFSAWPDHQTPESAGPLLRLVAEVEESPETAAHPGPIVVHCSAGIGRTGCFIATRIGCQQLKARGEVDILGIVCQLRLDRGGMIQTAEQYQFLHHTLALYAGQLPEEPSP

[10] = target: T5, Voltage-gated N-type calcium channel alpha-1B subunit/Amyloid beta A4 precursor protein-binding family A member 1 (Homo sapiens, UniProt Q00975+Q02410); format: protein assay
[11] = target: NS3 (Hepatitis C virus, UniProt A3EZJ3); experiment: PubChem AID 2173; set-up: species or system Hepacivirus hominis
[12] = target: T5, Voltage-gated N-type calcium channel alpha-1B subunit/Amyloid beta A4 precursor protein-binding family A member 1; format: protein assay; remark: listed apart in the source
[13] = target: T3, Dual specificity protein phosphatase 3; experiment: VHR1 phosphatase inhibitors, biochemical (AID 1878)
[14] = target: T6, Dual specificity protein phosphatase 6 (Rattus norvegicus, UniProt Q64346); experiment: inhibition of rat DUSP6 enzyme activity – biochemical, in vitro, primary screen (AID 425)
T6 sequence (Q64346 whole entry): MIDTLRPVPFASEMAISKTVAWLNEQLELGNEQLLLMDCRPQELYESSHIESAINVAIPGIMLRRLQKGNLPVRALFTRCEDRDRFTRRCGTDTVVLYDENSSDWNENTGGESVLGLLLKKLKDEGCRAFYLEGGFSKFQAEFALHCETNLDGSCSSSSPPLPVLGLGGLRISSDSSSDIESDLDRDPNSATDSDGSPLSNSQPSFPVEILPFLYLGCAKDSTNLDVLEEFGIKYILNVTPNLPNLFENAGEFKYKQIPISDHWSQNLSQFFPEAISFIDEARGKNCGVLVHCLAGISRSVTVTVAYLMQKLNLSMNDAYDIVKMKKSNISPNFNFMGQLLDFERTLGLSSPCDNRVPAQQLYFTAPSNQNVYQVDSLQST

[15] = target: Induced myeloid leukemia cell differentiation protein Mcl-1 (Homo sapiens, UniProt Q07820); format: functional
[16] = target: T7, Tyrosine-protein phosphatase non-receptor type 22 (Homo sapiens, UniProt Q9Y2R2); format: functional
T7 sequence (Q9Y2R2 whole entry): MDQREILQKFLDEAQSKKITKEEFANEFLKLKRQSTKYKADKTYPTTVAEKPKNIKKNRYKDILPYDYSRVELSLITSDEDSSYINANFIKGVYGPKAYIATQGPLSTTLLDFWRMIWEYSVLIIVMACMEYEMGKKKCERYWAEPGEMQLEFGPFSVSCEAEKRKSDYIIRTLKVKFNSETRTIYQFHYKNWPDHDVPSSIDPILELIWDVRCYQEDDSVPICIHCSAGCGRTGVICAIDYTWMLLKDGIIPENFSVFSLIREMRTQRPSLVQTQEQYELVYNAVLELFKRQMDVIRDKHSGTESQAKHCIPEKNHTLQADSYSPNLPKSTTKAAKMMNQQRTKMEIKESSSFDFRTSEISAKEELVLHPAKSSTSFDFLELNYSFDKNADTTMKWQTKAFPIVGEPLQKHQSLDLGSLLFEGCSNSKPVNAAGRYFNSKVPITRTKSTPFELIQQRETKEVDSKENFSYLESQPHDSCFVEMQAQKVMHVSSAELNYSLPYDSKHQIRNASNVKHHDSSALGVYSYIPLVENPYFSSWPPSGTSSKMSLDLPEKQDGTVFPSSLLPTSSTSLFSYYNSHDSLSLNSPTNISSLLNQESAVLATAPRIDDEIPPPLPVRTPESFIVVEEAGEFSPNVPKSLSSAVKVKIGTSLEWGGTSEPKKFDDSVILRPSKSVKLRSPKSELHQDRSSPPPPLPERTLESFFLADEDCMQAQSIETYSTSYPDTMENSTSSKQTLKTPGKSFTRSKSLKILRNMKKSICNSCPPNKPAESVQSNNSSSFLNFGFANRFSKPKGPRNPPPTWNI

[17] = target: T3, Dual specificity protein phosphatase 3; experiment: SAR VHR1 absorbance Assay for In Vitro dose response studies. [Related pubchem assays (depositor defined):AID1654, AID1661, AID1878, AID1992, AID2004]
[18] = target: T3, Dual specificity protein phosphatase 3; experiment: SAR VHR1 Fluorescent Assay for In Vitro dose response studies. [Related pubchem assays (depositor defined):AID1654, AID1661, AID1878, AID1992, AID2004, AID2070, AID2085]; format: functional
[19] = target: T4, Tyrosine-protein phosphatase non-receptor type 7; experiment: redox-active compounds inhibiting HePTP phosphatase – biochemical, fluorescence, mechanism study (AID 2068); format: functional
[20] = target: T7, Tyrosine-protein phosphatase non-receptor type 22; format: functional; remark: listed apart in the source
[21] = target: Eukaryotic translation initiation factor 4E (Mus musculus, UniProt P63073); experiment: blockers of eIF4G binding by eIF4E – biochemical, TR-FRET, dose response (AID 855); format: functional;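 note: potency for disrupting eIF4E binding to eIF4GI seen as loss of FRET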
[22] = target: T3, Dual specificity protein phosphatase 3; experiment: SAR VHR1 Fluorescent Assay for In Vitro dose response studies Set 2. [Related pubchem assays (depositor defined):AID1654, AID1661, AID1878]; format: functional
[23] = target: T6, Dual specificity protein phosphatase 6; format: functional
[24] = target: 26S proteasome non-ATPase regulatory subunit 14 (Homo sapiens, UniProt O00487); experiment: inhibition of proteasome subunit RPN11 – biochemical, fluorescence polarization, uHTS hits, confirmation (AID 602368); format: functional
[25] = target: 72 kDa type IV collagenase (Homo sapiens, UniProt P08253); experiment: Dose Response validation of uHTS RPN11 inhibitor hits using a MMP-2 Fluorescence assay.; format: functional
[26] = target: Prothrombin (Bos taurus, UniProt P00735); experiment: thrombin protease inhibitors – biochemical, fluorescence polarization, uHTS hits, dose response (AID 602369); format: functional
[27] = target: T8, Small ubiquitin-related modifier 1 (Homo sapiens, UniProt P63165); experiment: SUMO1 protein interaction blockers, potency – biochemical, fluorescence polarization, uHTS hits, dose response (AID 624382); format: functional; settings: read-out: IC50_Mean
[28] = target: T8, Small ubiquitin-related modifier 1; experiment: SUMO1 protein-protein binding blockers, potency – biochemical, FRET, dose response (AID 624383); format: functional; settings: read-out: IC50_Mean

T2 sequence (P41145 whole entry): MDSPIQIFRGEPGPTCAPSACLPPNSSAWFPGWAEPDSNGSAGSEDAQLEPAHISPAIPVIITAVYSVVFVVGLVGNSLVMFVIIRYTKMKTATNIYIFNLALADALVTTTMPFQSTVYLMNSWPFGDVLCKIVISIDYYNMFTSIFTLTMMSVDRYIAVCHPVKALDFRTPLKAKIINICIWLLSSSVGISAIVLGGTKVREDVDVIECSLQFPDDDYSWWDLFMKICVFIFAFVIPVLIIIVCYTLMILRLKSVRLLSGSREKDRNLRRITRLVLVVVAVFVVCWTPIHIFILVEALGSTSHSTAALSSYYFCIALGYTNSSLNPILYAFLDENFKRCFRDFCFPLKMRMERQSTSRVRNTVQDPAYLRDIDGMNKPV
T3 sequence (P51452 whole entry): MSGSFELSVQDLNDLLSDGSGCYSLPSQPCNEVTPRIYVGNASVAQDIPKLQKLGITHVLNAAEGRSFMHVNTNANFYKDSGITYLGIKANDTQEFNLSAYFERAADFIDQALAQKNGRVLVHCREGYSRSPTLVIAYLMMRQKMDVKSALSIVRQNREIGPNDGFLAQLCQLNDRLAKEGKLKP
T8 sequence (P63165 whole entry): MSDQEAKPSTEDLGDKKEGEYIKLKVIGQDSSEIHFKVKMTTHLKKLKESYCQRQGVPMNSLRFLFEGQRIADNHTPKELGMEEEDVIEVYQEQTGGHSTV
T5 sequence (Q00975 whole entry): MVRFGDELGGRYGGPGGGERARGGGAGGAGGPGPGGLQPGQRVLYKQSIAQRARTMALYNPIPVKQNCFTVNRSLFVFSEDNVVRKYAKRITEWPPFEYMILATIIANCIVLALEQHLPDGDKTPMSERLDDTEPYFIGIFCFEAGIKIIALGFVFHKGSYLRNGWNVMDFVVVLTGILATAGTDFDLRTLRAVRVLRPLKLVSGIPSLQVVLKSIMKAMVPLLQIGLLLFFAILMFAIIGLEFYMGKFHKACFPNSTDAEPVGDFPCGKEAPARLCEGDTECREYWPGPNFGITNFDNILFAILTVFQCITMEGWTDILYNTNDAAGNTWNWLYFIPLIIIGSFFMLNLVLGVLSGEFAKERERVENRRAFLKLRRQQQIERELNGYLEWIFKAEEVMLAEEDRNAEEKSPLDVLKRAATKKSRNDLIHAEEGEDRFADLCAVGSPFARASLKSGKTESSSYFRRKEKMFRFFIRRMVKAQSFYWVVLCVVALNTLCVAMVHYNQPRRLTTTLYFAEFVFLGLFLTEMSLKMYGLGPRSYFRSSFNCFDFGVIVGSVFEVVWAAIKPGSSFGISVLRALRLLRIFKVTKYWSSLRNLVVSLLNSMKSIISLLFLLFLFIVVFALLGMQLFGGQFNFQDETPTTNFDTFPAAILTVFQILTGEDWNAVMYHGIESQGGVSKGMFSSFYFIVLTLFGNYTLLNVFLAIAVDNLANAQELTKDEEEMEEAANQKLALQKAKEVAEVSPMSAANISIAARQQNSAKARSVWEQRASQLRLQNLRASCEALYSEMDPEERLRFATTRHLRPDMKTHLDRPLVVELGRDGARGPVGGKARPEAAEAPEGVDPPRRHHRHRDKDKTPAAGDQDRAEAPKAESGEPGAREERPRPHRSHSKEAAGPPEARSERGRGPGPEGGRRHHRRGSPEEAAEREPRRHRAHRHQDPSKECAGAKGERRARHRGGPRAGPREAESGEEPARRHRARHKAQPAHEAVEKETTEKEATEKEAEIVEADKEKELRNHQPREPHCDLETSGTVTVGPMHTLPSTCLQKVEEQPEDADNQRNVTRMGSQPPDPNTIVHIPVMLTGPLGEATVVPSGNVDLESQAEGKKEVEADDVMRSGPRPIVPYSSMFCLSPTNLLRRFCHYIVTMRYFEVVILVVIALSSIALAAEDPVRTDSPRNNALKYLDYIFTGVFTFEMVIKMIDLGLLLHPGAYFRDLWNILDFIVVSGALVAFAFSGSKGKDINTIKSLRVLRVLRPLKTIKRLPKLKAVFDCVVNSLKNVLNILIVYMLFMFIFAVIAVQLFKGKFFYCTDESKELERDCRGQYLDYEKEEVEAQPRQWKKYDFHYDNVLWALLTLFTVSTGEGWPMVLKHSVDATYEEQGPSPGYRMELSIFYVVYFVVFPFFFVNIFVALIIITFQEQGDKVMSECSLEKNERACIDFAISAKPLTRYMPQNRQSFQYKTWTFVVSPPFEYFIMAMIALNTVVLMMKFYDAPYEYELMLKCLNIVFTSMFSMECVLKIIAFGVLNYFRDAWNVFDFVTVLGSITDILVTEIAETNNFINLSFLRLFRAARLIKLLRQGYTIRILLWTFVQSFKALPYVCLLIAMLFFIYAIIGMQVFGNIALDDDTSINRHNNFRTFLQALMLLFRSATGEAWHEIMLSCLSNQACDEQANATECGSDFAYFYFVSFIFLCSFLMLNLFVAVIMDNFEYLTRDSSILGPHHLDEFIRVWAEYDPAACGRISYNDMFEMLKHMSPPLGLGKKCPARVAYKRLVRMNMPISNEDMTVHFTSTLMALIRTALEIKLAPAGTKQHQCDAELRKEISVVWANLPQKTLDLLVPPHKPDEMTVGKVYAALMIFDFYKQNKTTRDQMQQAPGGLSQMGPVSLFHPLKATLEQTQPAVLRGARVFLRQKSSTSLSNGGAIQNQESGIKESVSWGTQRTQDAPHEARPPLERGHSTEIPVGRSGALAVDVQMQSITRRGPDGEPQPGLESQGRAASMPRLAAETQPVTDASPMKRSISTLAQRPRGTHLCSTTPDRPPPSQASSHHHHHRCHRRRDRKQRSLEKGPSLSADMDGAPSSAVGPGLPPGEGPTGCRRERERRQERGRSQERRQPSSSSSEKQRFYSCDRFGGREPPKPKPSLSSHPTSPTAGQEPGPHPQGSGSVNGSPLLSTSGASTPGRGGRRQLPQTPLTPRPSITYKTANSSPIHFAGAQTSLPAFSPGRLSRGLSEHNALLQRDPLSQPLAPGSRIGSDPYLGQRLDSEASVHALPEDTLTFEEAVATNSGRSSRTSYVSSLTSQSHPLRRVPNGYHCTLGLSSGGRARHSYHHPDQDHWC
T5 sequence (Q02410 whole entry): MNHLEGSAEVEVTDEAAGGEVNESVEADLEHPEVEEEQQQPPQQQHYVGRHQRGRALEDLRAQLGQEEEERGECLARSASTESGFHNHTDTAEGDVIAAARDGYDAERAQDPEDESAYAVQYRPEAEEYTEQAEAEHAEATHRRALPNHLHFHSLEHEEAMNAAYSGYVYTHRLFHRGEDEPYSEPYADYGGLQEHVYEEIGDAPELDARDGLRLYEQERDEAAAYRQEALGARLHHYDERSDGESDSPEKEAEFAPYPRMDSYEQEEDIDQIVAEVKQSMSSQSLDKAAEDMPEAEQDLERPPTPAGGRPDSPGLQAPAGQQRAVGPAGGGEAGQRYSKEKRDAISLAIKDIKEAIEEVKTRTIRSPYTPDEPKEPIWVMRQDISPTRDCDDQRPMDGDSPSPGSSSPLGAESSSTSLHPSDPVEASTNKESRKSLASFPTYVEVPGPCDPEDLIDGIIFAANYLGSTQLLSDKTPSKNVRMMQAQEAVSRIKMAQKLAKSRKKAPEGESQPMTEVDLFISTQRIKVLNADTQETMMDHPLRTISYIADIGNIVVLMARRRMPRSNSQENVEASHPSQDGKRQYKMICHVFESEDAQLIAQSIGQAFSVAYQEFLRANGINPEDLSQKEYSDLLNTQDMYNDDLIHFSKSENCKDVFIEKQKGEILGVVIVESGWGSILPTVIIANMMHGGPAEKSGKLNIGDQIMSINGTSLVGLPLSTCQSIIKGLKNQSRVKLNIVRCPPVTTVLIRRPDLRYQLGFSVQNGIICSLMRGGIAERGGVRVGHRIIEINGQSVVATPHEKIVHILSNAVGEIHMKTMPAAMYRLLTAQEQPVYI
T1 sequence (P41143 whole entry): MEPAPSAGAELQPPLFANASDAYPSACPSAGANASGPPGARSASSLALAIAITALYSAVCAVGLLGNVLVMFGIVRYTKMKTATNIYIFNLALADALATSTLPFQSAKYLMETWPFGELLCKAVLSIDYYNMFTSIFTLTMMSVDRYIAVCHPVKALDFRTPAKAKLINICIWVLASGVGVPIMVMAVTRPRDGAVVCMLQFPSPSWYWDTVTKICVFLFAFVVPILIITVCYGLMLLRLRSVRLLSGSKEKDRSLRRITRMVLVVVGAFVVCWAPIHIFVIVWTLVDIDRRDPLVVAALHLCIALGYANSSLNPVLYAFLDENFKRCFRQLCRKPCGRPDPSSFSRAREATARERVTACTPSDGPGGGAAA
NS3, sequence (A3EZJ3 whole entry): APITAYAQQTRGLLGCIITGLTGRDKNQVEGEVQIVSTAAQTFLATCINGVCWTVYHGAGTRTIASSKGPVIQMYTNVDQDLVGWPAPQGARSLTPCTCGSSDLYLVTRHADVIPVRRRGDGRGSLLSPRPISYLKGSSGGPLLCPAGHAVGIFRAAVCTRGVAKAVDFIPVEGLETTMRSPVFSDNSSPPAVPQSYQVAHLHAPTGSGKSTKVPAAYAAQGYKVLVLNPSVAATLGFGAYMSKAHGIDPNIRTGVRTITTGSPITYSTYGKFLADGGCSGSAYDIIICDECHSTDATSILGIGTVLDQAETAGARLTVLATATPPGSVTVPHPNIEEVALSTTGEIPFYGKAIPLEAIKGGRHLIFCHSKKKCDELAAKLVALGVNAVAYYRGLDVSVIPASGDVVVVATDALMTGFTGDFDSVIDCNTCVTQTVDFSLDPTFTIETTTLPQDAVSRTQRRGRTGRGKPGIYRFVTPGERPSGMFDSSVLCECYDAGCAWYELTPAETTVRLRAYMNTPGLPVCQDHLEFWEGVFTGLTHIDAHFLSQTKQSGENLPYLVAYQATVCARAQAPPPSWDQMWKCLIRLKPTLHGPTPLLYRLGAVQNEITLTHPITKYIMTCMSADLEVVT

COc1ccc(S(=O)(=O)N(CC(=O)Nc2ccc(S(=O)(=O)N3CCOCC3)cc2)c2ccccc2)cc1
IC50 [1]: > 32 µM (inactive)
EC50 [2]: > 32 µM (inactive)
EC50 [3]: > 32 µM (inactive)
IC50 [4]: 2.82 µM (active)
EC50 [5]: > 31.5 µM (inactive)
IC50 [6]: 4.04 µM

c1ccc(CSc2nnc(-c3ccncc3)n2Cc2ccco2)cc1
EC50 [7]: > 20 µM (inactive)

CCOC(=O)c1sc2nc3c(SCCC(=O)O)cc(C(=O)c4cc(OC)ccc4O)cn3c(=O)c2c1C
IC50 [8]: 4.87 µM (active)
IC50 [9]: 1.68 µM (active)
IC50 [10]: 8.15 µM (active)
IC50 [11]: 2.58 µM (active)
IC50 [12]: 36.2 µM (active)
IC50 [13]: < 1.23 µM (inactive)
IC50 [14]: 101 µM (not active)
IC50 [15]: 1.24 µM (active)
IC50 [16]: 7.26 µM (active)
IC50 [17]: 1.29 µM (active)
IC50 [18]: 0.48 µM (active)
IC50 [19]: 0.209 µM (active)
IC50 [20]: 2.02 µM (active)
IC50 [21]: 50 µM (inactive)
IC50 [22]: < 0.195 µM (active)
IC50 [23]: 59.5 µM (active)
IC50 [24]: 8.13 µM (active)
IC50 [25]: 1.04 µM (active)
IC50 [26]: 72.5 µM (active)
IC50 [27]: > 66.6 µM (inactive)
IC50 [28]: 5.54 µM (active)
